From patent US20030026781A1, “Compositions and methods for regulating endogenous inhibitor of ATP synthase, including treatment for diabetes” (MitoKor, priority 1999, published 2003)
Where “and” joins values, the source holds several entries; their conditions need not be identical. Equal entries are not always repeated. Values belong to the compound of their own block, whether it stands above or below them. Ends that are not written are not given here.

Experiments:
[1] = molecular target: T1, purified F1-ATPase (Bos taurus, UniProt P00829+P19483); assay: ATP hydrolysis by purified F1-ATPase; format: biochemical; settings: bovine cardiac F1-ATPase; read-out: IC50 for inhibition of ATP hydrolysis by purified F1-ATPase
T1 construct: F1 ATPase subcomplexes were isolated from bovine cardiac samples; from tissue; host or cells: bovine heart (alkaline submitochondrial particles, chloroform extraction, method of Walker et al. 1995)
Description: (§1) F0-F1 ATPase complexes and F1 ATPase subcomplexes were isolated from bovine cardiac samples essentially according to the method of Walker et al. (Methods in Enzymology 260:163-190, 1995), with the exception that, instead of preparing SMPs (submitochondrial particles) at neutral pH, ASMPs (alkaline submitochondrial particles; see Rouslin and Broge, Anal. Biochem. 222:68-75, 1994) were prepared from bovine heart by sonication in a basic solution. The ASMPs were extracted with chloroform and used to prepare F0-F1 ATPase and F1 ATPase according to the method of Walker et al. (Methods in Enzymology 260:163-190, 1995).
(§2) One assay for ATPase activity involves measuring ATP hydrolysis according to methods known in the art (Walker et al., Methods in Enzymology 260:163-190, 1995; Rouslin and Broge, Anal. Biochem. 222:68-75, 1994). Such assays can be performed using purified F0-F1 ATPase complexes or F1 ATPase subcomplexes, or using alkaline submitochondrial particles (ASMPs).
In an initial experiment to validate the reagents and assay system, Aurovertin-B was used as a positive control. This antibiotic binds to and inhibits the activity of bacterial and mitochondrial ATPases (van Raaij et al., Proc. Natl. Acad. Sci. US.A. 93:14 6913-14 6917, 1996). The purified F1-ATPase described in the preceding Example was treated with varying concentrations of Aurovertin-B, and ATP hydrolyis was measured.

[2] = system: INS-1 cells; assay: Mitochondrial DNA content of INS-1 cells by slot blot with COX-I probe; settings: for effect on mtDNA content: INS-1 cells incubated for seven days with nucleoside analog
[3] = system: INS-1 cells; assay: Glucose-responsive insulin secretion by INS-1 cells depleted of mtDNA; format: cell-based, rat; settings: cells treated with ddC (10 μM) for over 20 days; any glucose level tested
Description: INS-1 cells, or ρ^0 INS-1 cells generated using ddC as described above, were seeded into 12-well plates containing RPMI media supplemented as described at 0.5×10^6 cells/well and cultured at 37° C., 5% CO2 for 2 days. Cells (0.7×10^6 cells/well were rinsed with glucose-free KRH buffer (134 mM NaCl, 4.7 mM KCl, 1.2 mM KH2PO4, 1.2 mM MgSO4, 1.0 mM CaCl2, 10 mM HEPES, 10 mM NaHCO3, 0.5% BSA), then incubated in the same buffer for 1 hr at 37° C. in a humidified 5% CO2/95% air atmosphere. Fresh KRH buffer containing 0.5 mM isobutylmethyl xanthine and the following secretagogues was added: 5 mM glucose, 10 mM glucose, 20 mM glucose, 5 mM KCl or 20 mM KCl. After an additional 1 hr at 37° C., 5% CO2 the culture supernatants were collected. Insulin concentrations in the supernatants were measured and normalized to cell number using an insulin-specific radioimmunoassay kit (ICN Biochemicals, Irvine, Calif.) according to the manufacturer's instructions.

[4] = molecular target: T2, F0-F1-ATPase (Bos taurus, UniProt P00829+P19483); assay: ATP hydrolysis by purified F0-F1-ATPase; format: biochemical; settings: bovine cardiac F0-F1-ATPase
T2 construct: F0-F1 ATPase complexes and F1 ATPase subcomplexes were isolated from bovine cardiac samples; from tissue; host or cells: bovine heart (from alkaline submitochondrial particles, method of Walker et al. 1995)
Description: as §1, §2
In like fashion, the two IF1 polypeptide derivatives were tested for their ability to inhibit the purified F1-ATPase and F0-F1-ATPase. The results (FIG. 5) indicate that both synthetic polypeptides inhibited the F1 ATPase. […]

Compound: CC[C@H]1O[C@]2(C)[C@H](OC(C)=O)[C@@]1(C)O[C@@H](/C=C/C=C/C=C/c1oc(=O)cc(OC)c1C)[C@@H]2O [Aurovertin-B]
IC50 [1]: 850 nM

Compound: Cc1cn([C@H]2C=C[C@@H](CO)O2)c(=O)[nH]c1=O [d4T]
effect on mtDNA content [2]: decreased mtDNA content in a dose-dependent fashion

Compound: Nc1ccn([C@H]2CC[C@@H](CO)O2)c(=O)n1 [ddC, 2′3′-dideoxycytidine]
glucose stimulated insulin secretion [3]: not observed
effect on mtDNA content [2]: decreased mtDNA content in a dose-dependent fashion
mtDNA detection ([2]; INS-1 cells incubated with 25 ∥M ddC, after 21 days): undetectable
IC50 ([2]; read-out: IC50 for decrease of mtDNA content, INS-1 cells, seven days): ~50000 nM

Compound: O=c1[nH]cnc2c1ncn2[C@H]1CC[C@@H](CO)O1 [ddI, 2′3′-dideoxyinosine]
effect on mtDNA content [2]: decreased mtDNA content in a dose-dependent fashion

IC50 for inhibition of purified F0-F1-ATPase [4]: no effect
Compound: FGKREKAEEDRYFREKTREQLAALK [IF1(22-46)]

IC50 ([4]; read-out: IC50 for inhibition of purified F0-F1-ATPase): ~180 nM and 180 nM
Compound: LAALKKHHEDEIDHHSK [IF1(42-58)]
